# Conditions: for amount of Tween 80 required to dissolve the Fmoc protected amino acid, relative to its amount: aqueous solution, room temperature; for solubility in aqueous solutions: without the dissolving procedure
# Method: A process for dissolving Fmoc-AA in Aqueous Solution was developed and it is summarized as follows (FIG. 9). Firstly, a non-ionic surfactant is dissolved in a small portion of a water-miscible organic solvent, creating Solution A. Secondly, FAA is dissolved in another small portion of a water-miscible organic solvent, creating Solution B. These two solutions, Solution A and Solution B, are thoroughly mixed to create a homogeneous mixture. This mixture is then added vigorously to an aqueous solvent.
# To enable the utilization of Fmoc-AA as a building block in an aqueous solution, a specialized procedure has been developed to render Fmoc-AA soluble in aqueous solvents. The present invention devised a method to render Fmoc-AA soluble in water. First, none ionic surfactant is dissolved in a small amount of water-mixable organic solution, creating solution A, and then secondly, a Fmoc-AA is dissolved in a small amount of water-mixable organic solvent to create solution B, Solution A is thoroughly mixed with Solution B. The resulting mixture is then vigorously added to an aqueous solution. Fmoc-AA aqueous solution is obtained (FIG. 9),
# 4 grams of Tween 80 are added to 2 ml of DMSO to create solution A. and 1 grams of Fmoc-AA are added to 5 ml of DMSO to create solution B, solution A and solution B are mixed thoroughly, and then the resulting mixture is added to 88 ml of water to obtain a 1% concentration of Fmoc-AA in aqueous solution.
# • Step 1: Dissolve 1.08 grams of Fmoc-Gly in 6.13 ml of DMSO solvent. Next, add 6.00 milliliters (mL) of a 70% Tween 80 in DMSO solution to the Fmoc-Gly DMSO solution. • Step 2: Pour this mixture into 87 mL of deionized (DI) water.
# Dissolve 0.18 grams of Fmoc-Phe in 1.98 DMSO of solvent. Next, add 2.26 milliliters (mL) of a 70% Tween 80 in DMSO solution to Fmoc-Phe solution.
# Transfer this mixture into 20.38 mL of deionized water.
# Gradually, add 70% T dropwise until the solution becomes clear.
# This process yields a solution containing 0.72% Fmoc-Phe in an aqueous solution with 10.80% DMSO.
"amount of Tween 80 required to dissolve the Fmoc protected amino acid, relative to its amount",solubility in aqueous solutions,effect of raising the temperature on solubility in aqueous solution (raised temperature),SMILES
approximately four times,poor solubility,–,"O=C(O)CNC(=O)OCC1c2ccccc2-c2ccccc21 [Fmoc-Gly, Fmoc-Glycine]"
approximately eight times,poor solubility,significantly increase the solubility,"O=C(N[C@@H](Cc1ccccc1)C(=O)O)OCC1c2ccccc2-c2ccccc21 [Fmoc-Phe, Fmoc-Phenylalanine]"

# Source: patent US20250197442A1, “Peptide Synthesis in Aqueous Solution” (priority 2023, published 2025)
